# US20190389830A1, “NRF2 ACTIVATOR” (BIOGEN MA INC., priority 2017, published 2019)
# Key:
# Assay type in all cases: cell-based
# [1] = test system: Nrf2 target genes; test: Gene expression (RT-PCR) in cultured human astrocytes; conditions: 20 hours, increasing concentrations
# Experimental: (§1) Human astrocytes from ScienCell (cat #1820) were grown in astrocyte medium per supplier's instructions. Cells cultured for no more than two passages were plated in 96-well plates at 40,000 cells per well for gene transcription experiments and 20,000 cell per well for glutathione and cytoprotection assays.
# Primary cultures of human spinal cord astrocytes were treated with compound 3-Ent1 for 20 hours. The cells were then rinsed in PBS, lysed, and processed for RNA using Ambion Taqman™ Cells-to-CT kit. The resulting cDNA was stored at −20° C. until analysis by real-time polymerase chain reaction (RT-PCR). The cDNA mixture from Cells-to-CT was diluted 5x before loading into PCR. This yields results similar to using 6 ng of purified cDNA. RT-PCR was performed on Life Technologies QuantStudio platform using OpenArray technique according to manufacturer's protocol using the following Taqman primers: […]
# The comparative CT method was used to calculate fold changes using ThermoFisher Cloud software for PCR analysis. Samples were compared to vehicle control.
# [2] = test system: human astrocytes; test: Glutathione assay (GSH-Glo) in human astrocytes; conditions: 20-hr exposure (FIG. 2)
# Experimental: as §1
# Intracellular glutathione was measured after a 20-hr exposure to test compound 3-Ent1 by a two-step process. First, cells were lysed and luciferin quantitatively generated from substrate, catalyzed by glutathione-S-transferase in the presence of analyte glutathione. Then luciferin was assayed using stabilized luciferase to produce a luminescent signal proportional to the concentration of glutathione (Promega GSH-Glo, cat #V6912).
# [3] = test system: human astrocytes; test: Cytoprotection of astrocytes against sodium arsenite; conditions: compound 20 hrs before 25 μM sodium arsenite, further 22 hrs (FIG. 3)
# Experimental: as §1
# Astrocytes were treated for 20 hrs as above, then the medium was removed and replaced with serum- and supplement-free growth medium with and without 25 μM sodium arsenite. After 22 hrs., cells were washed with PBS, fixed with 4% paraformaldehyde/4% sucrose in PBS, stained with 4′,6-Diamidino-2-phenylindole dihydrochloride (DAPI) and counted by quantitative fluorescence microscopy.
smiles,measurement,setting,value
"CC1CCC2(C)C=C(C#N)C(=O)C(C)(C)C2O1 (single isomer, unassigned; ent1) [Compound 3-Ent1]",transcription of GCLC,[1]; compared to vehicle control (FIG. 1A),induces transcription
same,transcription of HMOX1,[1]; compared to vehicle control (FIG. 1B),induces transcription
same,transcription of OSGIN1,[1]; compared to vehicle control (FIG. 1C),induces transcription
same,transcription of NQO1,[1]; compared to vehicle control (FIG. 1D),induces transcription
same,intracellular glutathione,[2],increases
same,protection from oxidative stress-induced cell death,[3],protects cells
